Data published in publication PMC5053573, “Structure-Based Design of Tetrahydroisoquinoline-7-carboxamides as Selective Discoidin Domain Receptor 1 (DDR1) Inhibitors” (Journal of Medicinal Chemistry, 2016).

Experiments:
Assay in all cases: biochemical
Conditions in all cases: read-out: %Ctrl @ 1000nM
[1] = biological target: ABL1(F317L)-nonphosphorylated (Homo sapiens, UniProt P00519, F317L)
ACVR2A = ACVR2A (Homo sapiens, UniProt P27037)
ALK(C1156Y) = ALK(C1156Y) (Homo sapiens, UniProt Q9UM73, C1156Y)
AMPK-alpha2 = biological target: T1, AMPK-alpha2 (Homo sapiens, UniProt P54646)
T1 construct: gene PRKAA2

AURKA = AURKA (Homo sapiens, UniProt O14965)
BMPR2 = BMPR2 (Homo sapiens, UniProt Q13873)
CAMK1G = CAMK1G (Homo sapiens, UniProt Q96NX5)
CDK8 = CDK8 (Homo sapiens, UniProt P49336)
CDKL2 = CDKL2 (Homo sapiens, UniProt Q92772)
CHEK1 = CHEK1 (Homo sapiens, UniProt O14757)
Sequence of CHEK1 (O14757 whole entry): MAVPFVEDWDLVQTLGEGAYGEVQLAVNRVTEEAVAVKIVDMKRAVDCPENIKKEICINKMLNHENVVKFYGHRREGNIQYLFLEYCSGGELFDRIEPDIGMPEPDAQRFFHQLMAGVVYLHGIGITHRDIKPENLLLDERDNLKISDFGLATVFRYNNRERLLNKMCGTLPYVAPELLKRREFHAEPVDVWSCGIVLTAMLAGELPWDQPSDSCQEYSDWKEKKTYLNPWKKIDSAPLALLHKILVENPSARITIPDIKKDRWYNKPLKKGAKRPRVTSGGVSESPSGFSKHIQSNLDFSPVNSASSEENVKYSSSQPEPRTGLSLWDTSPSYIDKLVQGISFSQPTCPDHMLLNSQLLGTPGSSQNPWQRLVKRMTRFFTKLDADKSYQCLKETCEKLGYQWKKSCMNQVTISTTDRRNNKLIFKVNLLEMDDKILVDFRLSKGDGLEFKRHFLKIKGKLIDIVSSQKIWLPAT

CLK1 = CLK1 (Homo sapiens, UniProt P49759)
CTK = biological target: T2, CTK (Homo sapiens, UniProt P42679)
T2 construct: gene MATK

DLK = biological target: T3, DLK (Homo sapiens, UniProt Q12852)
T3 construct: gene MAP3K12

DMPK2 = biological target: T4, DMPK2 (Homo sapiens, UniProt Q6DT37)
T4 construct: gene CDC42BPG

EGFR(L861Q) = EGFR(L861Q) (Homo sapiens, UniProt P00533, L861Q)
FGFR2 = FGFR2 (Homo sapiens, UniProt P21802)
GRK7 = GRK7 (Homo sapiens, UniProt Q8WTQ7)
Sequence of GRK7 (Q8WTQ7 whole entry): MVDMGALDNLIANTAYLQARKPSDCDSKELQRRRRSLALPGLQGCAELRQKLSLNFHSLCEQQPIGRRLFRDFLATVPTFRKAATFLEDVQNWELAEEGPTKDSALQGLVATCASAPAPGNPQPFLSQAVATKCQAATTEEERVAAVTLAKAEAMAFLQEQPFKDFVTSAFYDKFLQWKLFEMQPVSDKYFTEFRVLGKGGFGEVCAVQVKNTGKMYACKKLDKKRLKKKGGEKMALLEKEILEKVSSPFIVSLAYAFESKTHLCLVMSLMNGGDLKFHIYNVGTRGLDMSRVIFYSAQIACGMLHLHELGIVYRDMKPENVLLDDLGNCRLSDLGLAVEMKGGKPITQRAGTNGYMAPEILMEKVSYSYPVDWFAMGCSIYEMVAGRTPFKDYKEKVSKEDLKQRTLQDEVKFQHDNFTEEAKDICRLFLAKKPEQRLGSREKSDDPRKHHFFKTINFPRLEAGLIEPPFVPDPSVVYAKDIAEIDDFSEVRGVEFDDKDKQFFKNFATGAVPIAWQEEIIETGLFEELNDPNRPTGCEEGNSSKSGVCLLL

IRAK1 = IRAK1 (Homo sapiens, UniProt P51617)
IRAK3 = IRAK3 (Homo sapiens, UniProt Q9Y616)
Sequence of IRAK3 (Q9Y616 whole entry): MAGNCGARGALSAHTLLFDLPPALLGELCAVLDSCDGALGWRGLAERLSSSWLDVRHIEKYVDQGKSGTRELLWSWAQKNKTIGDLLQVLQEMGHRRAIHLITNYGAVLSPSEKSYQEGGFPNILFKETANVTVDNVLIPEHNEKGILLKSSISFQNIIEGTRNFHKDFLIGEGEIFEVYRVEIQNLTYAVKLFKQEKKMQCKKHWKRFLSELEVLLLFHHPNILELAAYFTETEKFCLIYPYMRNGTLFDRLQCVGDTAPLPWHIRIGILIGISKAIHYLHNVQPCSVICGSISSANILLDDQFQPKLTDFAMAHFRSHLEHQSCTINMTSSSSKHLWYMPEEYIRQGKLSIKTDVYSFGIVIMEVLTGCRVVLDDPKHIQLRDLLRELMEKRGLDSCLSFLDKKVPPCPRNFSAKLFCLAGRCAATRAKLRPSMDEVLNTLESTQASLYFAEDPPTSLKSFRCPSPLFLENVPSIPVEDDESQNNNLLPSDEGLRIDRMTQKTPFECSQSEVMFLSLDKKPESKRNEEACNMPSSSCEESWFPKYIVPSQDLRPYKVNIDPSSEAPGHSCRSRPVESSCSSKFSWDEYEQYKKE

[2] = biological target: JAK1(JH1domain-catalytic) (Homo sapiens, UniProt P23458)
MAP3K1 = MAP3K1 (Homo sapiens, UniProt Q13233)
MAP3K4 = MAP3K4 (Homo sapiens, UniProt Q9Y6R4)
MLK2 = biological target: T5, MLK2 (Homo sapiens, UniProt Q02779)
T5 construct: gene MAP3K10

MST2 = biological target: T6, MST2 (Homo sapiens, UniProt Q13188)
T6 construct: gene STK3
T6 sequence (Q13188 whole entry): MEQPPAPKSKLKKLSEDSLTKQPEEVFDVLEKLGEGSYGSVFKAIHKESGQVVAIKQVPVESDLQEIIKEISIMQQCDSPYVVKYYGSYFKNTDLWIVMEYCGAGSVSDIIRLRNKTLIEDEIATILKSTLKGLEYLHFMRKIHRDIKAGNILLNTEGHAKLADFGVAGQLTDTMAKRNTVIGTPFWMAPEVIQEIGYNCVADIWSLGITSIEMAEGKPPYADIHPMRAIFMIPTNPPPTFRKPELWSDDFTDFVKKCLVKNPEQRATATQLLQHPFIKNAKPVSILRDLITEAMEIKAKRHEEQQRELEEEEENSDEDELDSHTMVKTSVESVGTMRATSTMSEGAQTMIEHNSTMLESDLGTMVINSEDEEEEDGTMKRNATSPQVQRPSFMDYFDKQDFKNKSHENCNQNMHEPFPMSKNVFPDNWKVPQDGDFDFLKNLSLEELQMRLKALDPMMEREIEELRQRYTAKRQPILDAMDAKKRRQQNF

MYO3B = MYO3B (Homo sapiens, UniProt Q8WXR4)
Sequence of MYO3B (Q8WXR4 whole entry): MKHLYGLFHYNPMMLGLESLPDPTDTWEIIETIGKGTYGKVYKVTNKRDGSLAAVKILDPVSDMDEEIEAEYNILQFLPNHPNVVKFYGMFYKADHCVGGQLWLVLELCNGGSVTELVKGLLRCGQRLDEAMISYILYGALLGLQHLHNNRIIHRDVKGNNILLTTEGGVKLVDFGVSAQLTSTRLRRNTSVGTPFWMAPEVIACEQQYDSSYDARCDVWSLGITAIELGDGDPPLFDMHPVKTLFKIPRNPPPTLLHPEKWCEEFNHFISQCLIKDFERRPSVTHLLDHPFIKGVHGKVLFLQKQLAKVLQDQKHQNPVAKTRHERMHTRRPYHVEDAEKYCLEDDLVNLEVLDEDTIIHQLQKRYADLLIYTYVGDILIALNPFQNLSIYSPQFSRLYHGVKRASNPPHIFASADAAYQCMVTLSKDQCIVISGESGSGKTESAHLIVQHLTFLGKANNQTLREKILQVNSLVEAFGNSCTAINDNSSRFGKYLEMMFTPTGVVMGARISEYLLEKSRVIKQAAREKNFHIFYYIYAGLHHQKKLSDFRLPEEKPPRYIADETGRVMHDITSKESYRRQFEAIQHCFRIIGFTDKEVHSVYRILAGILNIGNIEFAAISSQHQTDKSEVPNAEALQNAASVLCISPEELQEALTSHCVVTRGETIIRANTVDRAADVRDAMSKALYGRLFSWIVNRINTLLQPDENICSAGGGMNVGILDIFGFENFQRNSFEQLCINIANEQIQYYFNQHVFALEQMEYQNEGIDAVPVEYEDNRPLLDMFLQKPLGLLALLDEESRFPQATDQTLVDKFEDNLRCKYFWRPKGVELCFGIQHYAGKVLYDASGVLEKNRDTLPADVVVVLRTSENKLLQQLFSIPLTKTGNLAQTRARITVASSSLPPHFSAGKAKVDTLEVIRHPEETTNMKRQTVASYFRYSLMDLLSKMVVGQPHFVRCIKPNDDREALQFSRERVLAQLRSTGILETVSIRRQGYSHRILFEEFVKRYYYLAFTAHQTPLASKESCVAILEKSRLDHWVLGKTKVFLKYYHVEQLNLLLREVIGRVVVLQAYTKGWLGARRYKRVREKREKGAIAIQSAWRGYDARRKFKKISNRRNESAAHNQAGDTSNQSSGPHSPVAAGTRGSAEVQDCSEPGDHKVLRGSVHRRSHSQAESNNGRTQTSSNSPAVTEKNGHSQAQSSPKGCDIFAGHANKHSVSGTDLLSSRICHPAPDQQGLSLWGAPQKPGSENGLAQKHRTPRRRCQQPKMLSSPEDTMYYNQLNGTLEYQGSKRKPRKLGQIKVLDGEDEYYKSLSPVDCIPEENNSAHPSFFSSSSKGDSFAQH

NEK10 = NEK10 (Homo sapiens, UniProt Q6ZWH5)
NEK3 = NEK3 (Homo sapiens, UniProt P51956)
Sequence of NEK3 (P51956 whole entry): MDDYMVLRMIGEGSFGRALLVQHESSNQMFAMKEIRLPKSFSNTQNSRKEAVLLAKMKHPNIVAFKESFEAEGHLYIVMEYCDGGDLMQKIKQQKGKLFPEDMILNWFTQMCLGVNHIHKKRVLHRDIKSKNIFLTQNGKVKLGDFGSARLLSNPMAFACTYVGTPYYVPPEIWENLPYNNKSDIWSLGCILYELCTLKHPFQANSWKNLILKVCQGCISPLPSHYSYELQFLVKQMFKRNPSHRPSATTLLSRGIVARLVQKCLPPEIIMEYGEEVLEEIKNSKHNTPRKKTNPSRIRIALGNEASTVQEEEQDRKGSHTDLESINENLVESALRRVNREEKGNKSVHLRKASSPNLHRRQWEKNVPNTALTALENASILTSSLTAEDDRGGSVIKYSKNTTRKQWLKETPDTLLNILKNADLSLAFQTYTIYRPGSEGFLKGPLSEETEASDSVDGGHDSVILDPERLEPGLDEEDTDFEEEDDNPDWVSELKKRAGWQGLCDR

OSR1 = biological target: T7, OSR1 (Homo sapiens, UniProt O95747)
T7 construct: gene OXSR1

PDGFRB = PDGFRB (Homo sapiens, UniProt P09619)
PIK3CA(E542K) = PIK3CA(E542K) (Homo sapiens, UniProt P42336, E542K)
Sequence of PIK3CA(E542K) (P42336 whole entry E542K): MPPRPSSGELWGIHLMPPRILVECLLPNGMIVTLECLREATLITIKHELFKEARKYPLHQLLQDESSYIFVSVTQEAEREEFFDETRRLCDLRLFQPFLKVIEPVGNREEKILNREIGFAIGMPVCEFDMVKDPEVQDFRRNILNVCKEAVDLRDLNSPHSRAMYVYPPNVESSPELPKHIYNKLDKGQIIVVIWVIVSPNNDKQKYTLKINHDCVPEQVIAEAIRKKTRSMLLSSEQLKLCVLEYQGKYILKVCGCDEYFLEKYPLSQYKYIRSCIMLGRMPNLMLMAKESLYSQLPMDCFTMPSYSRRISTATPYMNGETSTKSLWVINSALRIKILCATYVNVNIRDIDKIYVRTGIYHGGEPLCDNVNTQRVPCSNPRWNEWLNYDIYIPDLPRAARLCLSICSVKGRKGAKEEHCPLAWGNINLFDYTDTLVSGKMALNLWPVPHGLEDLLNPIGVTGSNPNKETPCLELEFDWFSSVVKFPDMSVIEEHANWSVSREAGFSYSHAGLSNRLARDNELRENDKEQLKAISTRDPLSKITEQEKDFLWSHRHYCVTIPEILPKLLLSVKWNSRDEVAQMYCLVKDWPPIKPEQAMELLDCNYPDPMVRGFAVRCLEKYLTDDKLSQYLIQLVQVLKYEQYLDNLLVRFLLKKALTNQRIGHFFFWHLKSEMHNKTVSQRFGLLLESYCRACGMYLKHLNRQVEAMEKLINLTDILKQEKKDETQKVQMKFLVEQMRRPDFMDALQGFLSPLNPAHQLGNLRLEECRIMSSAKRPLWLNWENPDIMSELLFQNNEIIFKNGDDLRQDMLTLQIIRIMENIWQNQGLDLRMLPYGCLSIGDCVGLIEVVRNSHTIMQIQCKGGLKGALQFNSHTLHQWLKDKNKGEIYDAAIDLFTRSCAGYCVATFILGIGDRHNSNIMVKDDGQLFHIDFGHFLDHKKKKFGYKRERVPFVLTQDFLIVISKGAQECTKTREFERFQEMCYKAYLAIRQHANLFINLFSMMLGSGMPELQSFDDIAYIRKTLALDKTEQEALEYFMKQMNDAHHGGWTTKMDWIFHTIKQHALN

RET = RET (Homo sapiens, UniProt P07949)
[3] = biological target: RPS6KA4(Kin.Dom.2-C-terminal) (Homo sapiens, UniProt O75676)
STK35 = STK35 (Homo sapiens, UniProt Q8TDR2)
SYK = SYK (Homo sapiens, UniProt P43405)
TRKA = biological target: T8, TRKA (Homo sapiens, UniProt P04629)
T8 construct: gene NTRK1

For `Cc1cn(-c2cc(NC(=O)c3ccc4c(c3)CN(c3cncnc3)C[C@@H]4C)cc(C(F)(F)F)c2)cn1` [Compound 6j], the remaining activity at 1 µM [1] was 38%, the remaining activity at 1 µM (ACVR2A) was 98% and the remaining activity at 1 µM (ALK(C1156Y)) was 100%. It also gave a remaining activity at 1 µM (AMPK-alpha2) of 100%, a remaining activity at 1 µM (AURKA) of 96% and a remaining activity at 1 µM (BMPR2) of 100%. It also gave a remaining activity at 1 µM (CAMK1G) of 84%, a remaining activity at 1 µM (CDK8) of 37% and a remaining activity at 1 µM (CDKL2) of 93%. It also gave a remaining activity at 1 µM (CHEK1) of 96%, a remaining activity at 1 µM (CLK1) of 92% and a remaining activity at 1 µM (CTK) of 100%. The remaining activity at 1 µM (DLK) was 100%, the remaining activity at 1 µM (DMPK2) was 100% and the remaining activity at 1 µM (EGFR(L861Q)) was 97%. The remaining activity at 1 µM (FGFR2) was 74%, the remaining activity at 1 µM (GRK7) was 94% and the remaining activity at 1 µM (IRAK1) was 100%. It also gave a remaining activity at 1 µM (IRAK3) of 86%, a remaining activity at 1 µM [2] of 100% and a remaining activity at 1 µM (MAP3K1) of 95%. It also gave a remaining activity at 1 µM (MAP3K4) of 56%, a remaining activity at 1 µM (MLK2) of 98% and a remaining activity at 1 µM (MST2) of 100%. For the same molecule, the remaining activity at 1 µM (MYO3B) was 85%, the remaining activity at 1 µM (NEK10) was 100% and the remaining activity at 1 µM (NEK3) was 94%. For the same molecule, the remaining activity at 1 µM (OSR1) was 100%, the remaining activity at 1 µM (PDGFRB) was 82% and the remaining activity at 1 µM (PIK3CA(E542K)) was 100%. It also gave a remaining activity at 1 µM (RET) of 94%, a remaining activity at 1 µM [3] of 100% and a remaining activity at 1 µM (STK35) of 100%. It also gave a remaining activity at 1 µM (SYK) of 93% and a remaining activity at 1 µM (TRKA) of 3.2%.
